Test [1] addresses BMP-2-inducible protein kinase (Homo sapiens) (UniProt Q9NSY1). The note with it: at 10 µM.
Test [2] addresses Casein kinase I isoform gamma-3 (Homo sapiens) (UniProt Q9Y6M4). Briefly: Selectivity interaction (KinomeScan (DiscoverX)) EUB0000655a CSNK1G3. The note with it: at 10 µM.
For test [3], the target named is T1, Aurora kinase A (Homo sapiens) (UniProt O14965).
T1 sequence (whole entry): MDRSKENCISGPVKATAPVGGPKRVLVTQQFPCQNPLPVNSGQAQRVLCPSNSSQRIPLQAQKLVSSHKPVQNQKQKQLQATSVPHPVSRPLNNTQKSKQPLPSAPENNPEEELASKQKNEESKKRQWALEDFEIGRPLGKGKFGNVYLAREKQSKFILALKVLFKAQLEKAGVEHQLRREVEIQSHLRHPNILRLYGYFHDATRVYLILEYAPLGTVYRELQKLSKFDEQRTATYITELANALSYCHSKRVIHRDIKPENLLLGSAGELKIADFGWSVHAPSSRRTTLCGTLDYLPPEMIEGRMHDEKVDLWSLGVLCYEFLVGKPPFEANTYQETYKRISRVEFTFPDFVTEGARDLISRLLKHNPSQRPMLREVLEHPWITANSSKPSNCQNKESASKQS
Briefly: Selectivity interaction (KinomeScan (DiscoverX)) EUB0000607a STK6. The note with it: at 10 µM.

The target of test [4] is T2, Eukaryotic translation initiation factor 2-alpha kinase 3 (Homo sapiens) (UniProt Q9NZJ5).
T2 sequence (whole entry): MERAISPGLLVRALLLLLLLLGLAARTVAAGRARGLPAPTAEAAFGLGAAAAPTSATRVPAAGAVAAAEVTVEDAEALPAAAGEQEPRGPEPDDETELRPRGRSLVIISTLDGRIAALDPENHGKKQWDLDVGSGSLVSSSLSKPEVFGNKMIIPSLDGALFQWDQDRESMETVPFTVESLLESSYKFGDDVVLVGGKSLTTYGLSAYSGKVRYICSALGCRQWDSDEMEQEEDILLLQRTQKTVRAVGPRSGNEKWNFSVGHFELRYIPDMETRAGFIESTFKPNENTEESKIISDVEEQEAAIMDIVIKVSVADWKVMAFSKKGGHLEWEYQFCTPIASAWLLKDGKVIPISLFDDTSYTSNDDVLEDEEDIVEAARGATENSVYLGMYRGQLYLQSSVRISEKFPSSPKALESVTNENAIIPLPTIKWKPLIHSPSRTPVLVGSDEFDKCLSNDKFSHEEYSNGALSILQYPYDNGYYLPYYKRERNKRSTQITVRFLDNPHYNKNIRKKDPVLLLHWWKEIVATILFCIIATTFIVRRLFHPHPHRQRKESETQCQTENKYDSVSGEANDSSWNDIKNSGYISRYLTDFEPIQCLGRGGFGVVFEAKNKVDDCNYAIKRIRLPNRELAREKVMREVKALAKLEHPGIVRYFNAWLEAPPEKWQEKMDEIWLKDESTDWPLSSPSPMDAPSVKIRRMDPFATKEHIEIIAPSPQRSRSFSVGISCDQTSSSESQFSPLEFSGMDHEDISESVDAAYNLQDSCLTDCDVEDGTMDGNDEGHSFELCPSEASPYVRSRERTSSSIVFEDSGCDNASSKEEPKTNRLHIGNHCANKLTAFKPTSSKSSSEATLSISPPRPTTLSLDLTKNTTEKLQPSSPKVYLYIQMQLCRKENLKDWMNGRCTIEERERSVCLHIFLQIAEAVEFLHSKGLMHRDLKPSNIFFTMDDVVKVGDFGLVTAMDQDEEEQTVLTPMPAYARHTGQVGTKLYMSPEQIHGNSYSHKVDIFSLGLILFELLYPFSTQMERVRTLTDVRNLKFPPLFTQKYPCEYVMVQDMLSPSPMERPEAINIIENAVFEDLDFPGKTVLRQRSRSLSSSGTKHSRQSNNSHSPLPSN
Briefly: Selectivity interaction (ActivX KiNativ screen (kinase selectivity in THP-1 cell lysates)) EUB0000639a EIF2AK3. It is filed as subcellular. The note with it: lysate.

Test [5] concerns the target T3, MAP kinase-activated protein kinase 5 (Homo sapiens) (UniProt Q8IW41).
T3 sequence (whole entry): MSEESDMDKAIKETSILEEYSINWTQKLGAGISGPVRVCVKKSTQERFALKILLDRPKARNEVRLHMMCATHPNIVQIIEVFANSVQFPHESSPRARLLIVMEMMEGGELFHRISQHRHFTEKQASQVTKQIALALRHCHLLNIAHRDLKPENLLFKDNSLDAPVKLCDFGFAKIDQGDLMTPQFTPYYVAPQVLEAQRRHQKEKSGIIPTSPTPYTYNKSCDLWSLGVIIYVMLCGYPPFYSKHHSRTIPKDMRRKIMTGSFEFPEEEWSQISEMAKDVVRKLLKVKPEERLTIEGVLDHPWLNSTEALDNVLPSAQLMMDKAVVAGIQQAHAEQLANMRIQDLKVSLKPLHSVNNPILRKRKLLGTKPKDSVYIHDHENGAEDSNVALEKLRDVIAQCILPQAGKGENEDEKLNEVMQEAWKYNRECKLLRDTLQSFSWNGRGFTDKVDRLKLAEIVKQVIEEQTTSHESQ
The experiment in a line: Selectivity interaction (KinomeScan (DiscoverX)) EUB0001619a MAPKAPK5. The note with it: at 1 µM.

Test [6] concerns the target Mitogen-activated protein kinase 11 (Homo sapiens) (UniProt Q15759). The experiment in a line: Selectivity interaction (KinomeScan (DiscoverX)) EUB0000618a MAPK11. The note with it: at 10 µM.

Chain of Mitogen-activated protein kinase 11 (Homo sapiens) (Q15759 whole entry): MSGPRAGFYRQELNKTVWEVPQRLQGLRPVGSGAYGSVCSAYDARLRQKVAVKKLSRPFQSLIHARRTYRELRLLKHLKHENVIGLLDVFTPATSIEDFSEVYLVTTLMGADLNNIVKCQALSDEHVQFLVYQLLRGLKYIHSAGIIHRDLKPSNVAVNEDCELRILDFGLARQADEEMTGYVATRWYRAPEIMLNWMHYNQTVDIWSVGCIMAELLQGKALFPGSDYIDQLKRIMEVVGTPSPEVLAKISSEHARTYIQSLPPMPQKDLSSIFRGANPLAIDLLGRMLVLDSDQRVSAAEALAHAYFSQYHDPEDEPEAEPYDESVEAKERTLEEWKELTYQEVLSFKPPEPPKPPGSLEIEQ
Chain of Casein kinase I isoform gamma-3 (Homo sapiens) (Q9Y6M4 whole entry, looked up, canonical isoform): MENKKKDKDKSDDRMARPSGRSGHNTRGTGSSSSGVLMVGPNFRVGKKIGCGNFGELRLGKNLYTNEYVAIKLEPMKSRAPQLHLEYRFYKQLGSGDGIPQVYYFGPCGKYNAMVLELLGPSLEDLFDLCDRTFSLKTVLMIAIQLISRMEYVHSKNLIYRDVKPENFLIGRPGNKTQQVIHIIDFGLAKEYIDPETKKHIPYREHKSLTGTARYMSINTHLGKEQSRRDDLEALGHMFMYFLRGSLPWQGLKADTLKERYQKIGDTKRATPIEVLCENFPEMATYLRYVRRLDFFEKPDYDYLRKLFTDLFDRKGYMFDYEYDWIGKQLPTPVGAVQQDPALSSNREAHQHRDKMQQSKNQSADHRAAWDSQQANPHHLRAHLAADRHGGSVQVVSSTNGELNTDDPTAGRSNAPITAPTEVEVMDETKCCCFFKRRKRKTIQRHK
Chain of BMP-2-inducible protein kinase (Homo sapiens) (Q9NSY1 whole entry, looked up, canonical isoform): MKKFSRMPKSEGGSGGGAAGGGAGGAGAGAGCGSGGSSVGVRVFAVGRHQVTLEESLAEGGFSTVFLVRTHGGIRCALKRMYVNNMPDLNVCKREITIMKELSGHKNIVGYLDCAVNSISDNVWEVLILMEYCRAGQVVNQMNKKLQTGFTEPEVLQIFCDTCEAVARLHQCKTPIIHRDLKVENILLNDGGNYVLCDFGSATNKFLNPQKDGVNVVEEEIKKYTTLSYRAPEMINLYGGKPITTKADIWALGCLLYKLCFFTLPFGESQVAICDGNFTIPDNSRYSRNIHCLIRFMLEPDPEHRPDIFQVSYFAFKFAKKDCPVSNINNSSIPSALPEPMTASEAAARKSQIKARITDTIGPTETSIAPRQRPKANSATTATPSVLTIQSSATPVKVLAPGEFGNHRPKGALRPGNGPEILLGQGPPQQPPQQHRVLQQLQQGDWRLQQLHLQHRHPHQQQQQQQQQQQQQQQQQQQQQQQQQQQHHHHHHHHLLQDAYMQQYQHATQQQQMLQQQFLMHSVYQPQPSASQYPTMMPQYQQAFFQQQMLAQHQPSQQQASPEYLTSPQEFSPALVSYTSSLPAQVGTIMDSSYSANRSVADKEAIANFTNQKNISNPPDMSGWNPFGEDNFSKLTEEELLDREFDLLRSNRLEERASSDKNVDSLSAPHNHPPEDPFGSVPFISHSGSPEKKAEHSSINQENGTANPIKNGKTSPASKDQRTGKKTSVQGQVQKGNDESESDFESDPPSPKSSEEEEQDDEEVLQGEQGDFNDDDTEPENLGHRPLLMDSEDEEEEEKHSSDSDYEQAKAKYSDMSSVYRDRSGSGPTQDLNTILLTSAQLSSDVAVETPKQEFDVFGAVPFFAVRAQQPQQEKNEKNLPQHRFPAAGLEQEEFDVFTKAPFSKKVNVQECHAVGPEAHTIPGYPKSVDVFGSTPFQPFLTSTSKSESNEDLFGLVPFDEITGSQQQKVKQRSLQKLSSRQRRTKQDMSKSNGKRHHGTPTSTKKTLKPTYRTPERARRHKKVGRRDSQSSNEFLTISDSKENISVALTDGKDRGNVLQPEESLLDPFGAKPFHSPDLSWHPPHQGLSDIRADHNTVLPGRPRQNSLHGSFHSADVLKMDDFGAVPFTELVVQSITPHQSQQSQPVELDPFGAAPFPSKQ

In test [1], `CCN(CC)CCCCNc1ncc2cc(-c3cc(OC)cc(OC)c3)c(NC(=O)NC(C)(C)C)nc2n1` returned a % of control of 100%.

`CN(C)CCOc1ccc(-c2nc(-c3ccncc3)c(-c3ccc4c(c3)CC/C4=N\O)[nH]2)cc1` came in with a % of control in test [2] of 92%.

For `CNC(=O)Nc1ccc(-c2nc(N3CC4CCC(C3)O4)c3cnn(C4CCC5(CC4)OCCO5)c3n2)cc1`, in test [3], the % of control turned out to be 100%.

On to `CC[C@@H]1[C@H](F)C(=O)N[C@@H]1COc1nccc2cc(C(N)=O)c(OC)cc12` [ZIMLOVISERTIB], for which the % of inhibition in test [4] (at 0.01 µM) was 5.1%; in test [4] (at 0.04 µM) it was -15.8%; in test [4] (at 0.2 µM), -12.3%; in test [4] (at 1 µM), -2.3%; in test [4] (at 5 µM), -20.8%.

`N#Cc1cccc(-c2c[nH]c3ncnc(N4CCOCC4)c23)c1` yielded a % of control in test [5] of 100%.

In test [6], `O[C@H]1CC[C@H](Nc2ncc3nc(Nc4c(F)cc(F)cc4F)n([C@H]4CCOC4)c3n2)CC1` yielded a % of control of 24%.
